Common to all, as to experiment: NCI 60 cell line screen
Common to all, as to format: cell-based

One test has as its system SNB-75. To be noted: SNB-75, CNS Cancer; single concentration 10^−5 M. The method in brief: (§1)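 Cytotoxic activity was assessed by the NCI across 60 cancer cell lines, with each compound tested once at 10^-5 M.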
For another test, the system named is MALME-3M. Conditions: Melanoma, single concentration 10^−5 M. In short, it runs like this:
as §1

Another test relates to UO-31. To be noted: UO-31, Renal Cancer; single concentration 10^−5 M. The method in brief: as §1
Another test relates to HL-60 (TB). Conditions: Leukemia, single concentration 10^−5 M. The method in brief:
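Tested externally (NCI, USA) versus 60 tumour cell lines using a single 10^-5 M concentration to gauge cytotoxicity.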

For another test, the system named is MCF7. To be noted: MCF7, Breast Cancer; single concentration 10^−5 M. The method in brief:
as §1

For the next test, the system named is SF-268. To be noted: SF-268, CNS Cancer; single concentration 10^−5 M. In short, it runs like this: as §1
The next test concerns SK-MEL-28. To be noted: SK-MEL-28, Melanoma; single concentration 10^−5 M. In short, it runs like this: as §1
The test system of a further test is MOLT-4. To be noted: MOLT-4, Leukemia; single concentration 10^−5 M. The method in brief: as §1
The test system of the next test is HOP-62. Conditions: HOP-62, Non-Small Cell Lung Cancer; single concentration 10^−5 M. In short, it runs like this:
as §1

In the next test the test system is EKVX. Conditions: Non-Small Cell Lung Cancer, single concentration 10^−5 M. In short, it runs like this: as §1
For the next test, the system named is M14. To be noted: M14, Melanoma; single concentration 10^−5 M. The method in brief:
as §1

Another test concerns OVCAR-5. Conditions: OVCAR-5, Ovarian Cancer; single concentration 10^−5 M. In short, it runs like this:
as §1

Another test relates to SN12C. To be noted: Renal Cancer, single concentration 10^−5 M. In short, it runs like this: as §1
A further test relates to MDA-MB-468. Conditions: MDA-MB-468, Breast Cancer; single concentration 10^−5 M. The method in brief: as §1
The next test concerns SK-OV-3. To be noted: SK-OV-3, Ovarian Cancer; single concentration 10^−5 M. The method in brief: as §1
A further test relates to MDA-MB-435. To be noted: MDA-MB-435, Melanoma; single concentration 10^−5 M. In short, it runs like this:
as §1

For another test, the system named is COLO205. Conditions: COLO205, Colon Cancer; single concentration 10^−5 M. The method in brief: as §1
The next test concerns HCC-2998. Conditions: HCC-2998, Colon Cancer; single concentration 10^−5 M. In short, it runs like this:
as §1

A further test relates to LOX IMVI. To be noted: Melanoma, single concentration 10^−5 M. The method in brief:
as §1

The test system of a further test is NCI-H522. To be noted: NCI-H522, Non-Small Cell Lung Cancer; single concentration 10^−5 M. In short, it runs like this:
as §1

A further test deals with SF-295. Conditions: SF-295, CNS Cancer; single concentration 10^−5 M. In short, it runs like this:
as §1

In a further test the test system is IGROV1. To be noted: IGROV1, Ovarian Cancer; single concentration 10^−5 M. The method in brief: as §1

Molecules are shown by their SMILES.

With `N#Cc1c(-c2ccccc2)cc(-c2c[nH]c3ccccc23)nc1-c1c[nH]c2ccccc12` [4a], the Growth % stood at 81.21% in the test with SNB-75; 99.77% in the test with MALME-3M; 68.28% in the test on UO-31; 103.72% with HL-60 (TB); 94.97% with MCF7; 96.15% with SF-268. For the same molecule, the Growth % turned out to be 109.51% with SK-MEL-28; 102.45% with MOLT-4; 92.66% in the test with HOP-62; 83.07% with EKVX; 100.81% in the test on M14; 103.05% with OVCAR-5. Moreover, the Growth % with SN12C is on record as 95.61%; in the test on MDA-MB-468, 93.05%; with SK-OV-3, 93.31%; in the test with MDA-MB-435, 102.63%; in the test with COLO205 it was 108.26%; with HCC-2998, 93.57%. Also, the Growth % with LOX IMVI was 100.06%; in the test on NCI-H522, 97.10%; in the test with SF-295, 96.36%; with IGROV1, 82.09%.
As for `N#Cc1c(-c2ccc(Br)cc2)cc(-c2c[nH]c3ccccc23)nc1-c1c[nH]c2ccccc12` [4b], the Growth % came out at 91.48% with SNB-75; 103.25% in the test on MALME-3M; 71.05% with UO-31; 102.74% with HL-60 (TB); 85.19% in the test on MCF7; 100.28% in the test on SF-268. Moreover, the Growth % is given as 112.22% with SK-MEL-28; 99.47% in the test with MOLT-4; 98.17% with HOP-62; 85.89% in the test on EKVX; 102.89% with M14; 107.40% in the test on OVCAR-5. For the same molecule, the Growth % in the test with SN12C worked out at 96.36%; in the test on MDA-MB-468, 104.30%; with SK-OV-3, 100.81%; with MDA-MB-435, 108.30%; with COLO205, 111.43%; in the test with HCC-2998, 114.86%. Also, the Growth % was 99.48% with LOX IMVI, 94.73% with NCI-H522, 99.37% with SF-295 and 73.65% in the test on IGROV1.
Consider `N#Cc1c(-c2ccc(Cl)cc2)cc(-c2c[nH]c3ccccc23)nc1-c1c[nH]c2ccccc12` [4c], for which the Growth % with SNB-75 turned out to be 100.87%; in the test with MALME-3M, 107.80%; in the test on UO-31 it was 70.21%; in the test on HL-60 (TB) it was 102.90%; with MCF7 it was 89.99%; in the test on SF-268, 103.64%. Besides, the Growth % in the test on SK-MEL-28 amounted to 103.30%; in the test with MOLT-4 it was 99.33%; with HOP-62 it was 93.62%; in the test on EKVX it was 87.50%; in the test on M14 it was 102.44%; in the test on OVCAR-5, 105.15%. Moreover, the Growth % in the test on SN12C was 97.84%; in the test with MDA-MB-468, 102.95%; in the test on SK-OV-3 it was 91.24%; with MDA-MB-435, 106.56%; in the test on COLO205 it was 106.5%; in the test on HCC-2998, 117.80%. Besides, the Growth % is on record as 101.39% with LOX IMVI, 96.57% in the test on NCI-H522, 99.60% with SF-295 and 91.10% in the test on IGROV1.
As to `N#Cc1c(-c2ccc(F)cc2)cc(-c2c[nH]c3ccccc23)nc1-c1c[nH]c2ccccc12` [4d], the Growth % in the test on SNB-75 stood at 98.55%; with MALME-3M, 101.85%; with UO-31 it was 84.72%; in the test on HL-60 (TB), 98.89%; in the test on MCF7, 89.33%; in the test with SF-268, 101.12%. Moreover, the Growth % in the test on SK-MEL-28 stood at 106.51%; in the test on MOLT-4, 103.02%; in the test with HOP-62, 100.69%; in the test on EKVX, 92.76%; in the test on M14 it was 97.40%; in the test on OVCAR-5, 109.33%. The Growth % in the test with SN12C was found to be 98.76%; with MDA-MB-468, 99.29%; with SK-OV-3 it was 96.90%; with MDA-MB-435, 107.27%; with COLO205, 113.48%; in the test on HCC-2998 it was 109.40%. Moreover, the Growth % with LOX IMVI worked out at 107.36%; in the test with NCI-H522, 97.04%; in the test on SF-295 it was 102.68%; in the test with IGROV1 it was 102.10%.
As for `COc1ccc(-c2cc(-c3c[nH]c4ccccc34)nc(-c3c[nH]c4ccccc34)c2C#N)cc1` [4e], the Growth % in the test on SNB-75 was found to be 97.63%; in the test with MALME-3M, 113.82%; in the test with UO-31 it was 74.78%; in the test with HL-60 (TB), 106.85%; in the test on MCF7 it was 90.48%; with SF-268, 105.10%. The Growth % with SK-MEL-28 was 108.94%; in the test with MOLT-4 it was 94.10%; in the test with HOP-62, 90.00%; in the test on EKVX it was 91.11%; in the test on M14 it was 93.75%; in the test on OVCAR-5 it was 103.69%. The Growth % in the test on SN12C was 99.19%; in the test with MDA-MB-468, 102.09%; with SK-OV-3, 94.59%; in the test on MDA-MB-435 it was 104.98%; with COLO205, 102.89%; with HCC-2998, 128.75%. Besides, the Growth % with LOX IMVI is reported as 86.06%; in the test with NCI-H522, 92.71%; in the test with SF-295, 95.83%; in the test with IGROV1, 85.18%.
On to `COc1cc(OC)cc(-c2cc(-c3c[nH]c4ccccc34)nc(-c3c[nH]c4ccccc34)c2C#N)c1` [4f], for which the Growth % in the test with SNB-75 is reported as 87.63%; in the test with MALME-3M it was 108.42%; with UO-31, 71.31%; in the test on HL-60 (TB), 101.74%; in the test on MCF7 it was 90.74%; in the test with SF-268, 99.97%. For the same molecule, the Growth % turned out to be 100.94% in the test with SK-MEL-28; 98.62% in the test with MOLT-4; 96.31% in the test with HOP-62; 91.45% with EKVX; 94.97% in the test with M14; 108.89% with OVCAR-5. Besides, the Growth % in the test with SN12C came out at 95.11%; in the test on MDA-MB-468 it was 92.23%; in the test with SK-OV-3, 99.89%; in the test on MDA-MB-435, 99.41%; with COLO205 it was 110.17%; in the test with HCC-2998, 112.62%. Further, the Growth % is recorded as 82.70% with LOX IMVI, 92.06% with NCI-H522, 101.07% in the test on SF-295 and 93.71% in the test with IGROV1.
Take `COc1cc(-c2cc(-c3c[nH]c4ccccc34)nc(-c3c[nH]c4ccccc34)c2C#N)cc(OC)c1OC` [4g]: the Growth % in the test on SNB-75 worked out at 77.85%; in the test on MALME-3M, 88.70%; in the test with UO-31, 65.92%; in the test with HL-60 (TB), 101.32%; with MCF7, 88.35%; in the test on SF-268 it was 97.03%. Also, the Growth % with SK-MEL-28 is 107.46%; in the test on MOLT-4 it was 100.72%; with HOP-62, 87.93%; in the test with EKVX it was 87.27%; in the test on M14, 98.40%; in the test with OVCAR-5, 103.55%. Also, the Growth % in the test on SN12C was 91.09%; with MDA-MB-468 it was 93.79%; in the test on SK-OV-3, 97.19%; with MDA-MB-435 it was 100.31%; in the test on COLO205, 106.57%; in the test on HCC-2998 it was 107.87%. In addition, the Growth % in the test with LOX IMVI was determined as 98.85%; in the test with NCI-H522, 93.33%; with SF-295, 95.05%; in the test with IGROV1, 74.20%.

For the origin of these results see publication PMC11530689, “Anti colorectal cancer activity and in silico studies of novel pyridine nortopsentin analog as cyclin dependent kinase 6 inhibitor” (Scientific Reports, 2024).
